From ChEMBL document CHEMBL1782032, “New aromatic substituted pyrazoles as selective inhibitors of human adipocyte fatty acid-binding protein” (Bioorg Med Chem Lett, 2011)
The source made the active and inactive calls. No cut-off for these calls is given here.

Experiments:
[1] = target: T1, Fatty acid-binding protein, heart (Homo sapiens, UniProt P05413); assay: Displacement of fluorescent 1-anilinonapthalene 8-sulfonic acid from human h-FABP by fluorescence spectrophotometry
Target sequence in this assay (P05413 whole entry): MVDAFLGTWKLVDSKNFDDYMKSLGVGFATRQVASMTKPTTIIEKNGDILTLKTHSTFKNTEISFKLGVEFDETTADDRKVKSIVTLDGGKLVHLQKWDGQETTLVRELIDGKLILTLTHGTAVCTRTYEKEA

[2] = target: T2, Fatty acid-binding protein, adipocyte (Homo sapiens, UniProt P15090); assay: Displacement of fluorescent 1-anilinonapthalene 8-sulfonic acid from human a-FABP by fluorescence spectrophotometry
Target sequence in this assay (P15090 whole entry): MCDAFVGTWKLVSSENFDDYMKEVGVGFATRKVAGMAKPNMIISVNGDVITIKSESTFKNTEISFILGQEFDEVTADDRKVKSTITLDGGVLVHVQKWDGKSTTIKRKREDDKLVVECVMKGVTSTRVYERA

[3] = system: RAW264.7; assay: Antiinflammatory activity in […] RAW264.7 cells assessed as inhibition of lipopolysaccharide induced MCP-1/CCL2 mRNA expression by PCR; format: functional, cell-based
[4] = system: RAW264.7; assay: Antiinflammatory activity in […] RAW264.7 cells assessed as inhibition of lipopolysaccharide induced TNF-alpha mRNA expression by PCR; format: functional, cell-based
[5] = target: T1, Fatty acid-binding protein, heart; assay: Displacement of fluorescent 1-anilinonapthalene 8-sulfonic acid from human h-FABP at 10 uM by fluorescence spectrophotometry
Target sequence in this assay (P05413 2-133 limits assumed): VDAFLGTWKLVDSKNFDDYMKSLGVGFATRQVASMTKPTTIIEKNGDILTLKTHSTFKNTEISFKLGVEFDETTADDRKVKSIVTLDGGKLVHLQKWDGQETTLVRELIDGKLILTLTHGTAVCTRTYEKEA

[6] = target: T2, Fatty acid-binding protein, adipocyte; assay: Displacement of fluorescent 1-anilinonapthalene 8-sulfonic acid from human a-FABP at 10 uM by fluorescence spectrophotometry
Target sequence in this assay (P15090 2-132 limits assumed): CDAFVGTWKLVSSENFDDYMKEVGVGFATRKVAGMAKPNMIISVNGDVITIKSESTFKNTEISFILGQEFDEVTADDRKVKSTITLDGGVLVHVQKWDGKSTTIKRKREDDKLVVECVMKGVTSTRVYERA

Ki [1] [µM] | Ki [2] [µM] | Activity [5] | Activity [6] | SMILES | inhibition [3] | inhibition [4]
3.72 | 0.006 | – | – | CCC(Oc1cccc(-c2ccccc2-c2cc(-c3cccs3)n(-c3ccc(Cl)cc3)n2)c1)C(=O)O (configuration not stated) | – | –
4.24 | 0.005 | – | – | O=C(O)COc1cccc(-c2ccccc2-c2cc(-c3cccs3)n(-c3ccc(Cl)cc3)n2)c1 | – | –
2.27 | < 0.001 | – | – | CC(Oc1cccc(-c2ccccc2-c2cc(-c3cccs3)n(-c3ccc(Cl)cc3)n2)c1)C(=O)O (configuration not stated) | Dose-dependent effect | Dose-dependent effect
– | – | – | – | CCc1c(-c2ccccc2)c(-c2ccccc2)nn1-c1ccccc1-c1cccc(OCC(=O)O)c1 | Dose-dependent effect | Dose-dependent effect
4.13 | 0.007 | – | – | O=C(O)COc1cccc(-c2ccccc2-c2cc(-c3ccco3)n(-c3ccc(Cl)cc3)n2)c1 | – | –
> 50 | < 0.001 | – | – | CC(C)(Oc1cccc(-c2ccccc2-c2cc(-c3cccs3)n(-c3ccc(Cl)cc3)n2)c1)C(=O)O | Dose-dependent effect | Dose-dependent effect
– | – | inactive | inactive | CCOC(=O)COc1cccc(-c2ccccc2-n2nc(-c3ccccc3)c(-c3ccccc3)c2CC)c1 | – | –
5.24 | 0.032 | – | – | O=C(O)COc1cccc(-c2ccccc2-c2cc(-c3ccccc3)n(-c3ccccc3)n2)c1 | – | –
17 | 0.013 | – | – | O=C(O)COc1cccc(-c2ccccc2-c2cc(-c3ccccc3)n(-c3ccc(Cl)cc3)n2)c1 | – | –
